Source: patent US7642269B2, “Pyrrolo[3,2-B]pyridine derivatives and processes for the preparation thereof” (Yuhan Corporation, priority 2005, dated 2010)

Legend:
[1] = molecular target: T1, H^+/K^+-ATPase (Sus scrofa, UniProt P19156); assay: Inhibitory effects on proton pump (H^+/K^+-ATPase) activity, hog gastric vesicles; assay type: biochemical; conditions: K^+ stimulated H^+/K^+-ATPase activity, hog gastric vesicle, Pi measured at 620 nm
T1 construct: used as an enzyme source of the in vitro enzyme reaction assay of proton pump; from tissue; host or cells: hog gastric fundic mucosa (membrane vesicles, lyophilized)
Summary of the method: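 Lyophilized hog gastric vesicles in Pipes/Tris pH 6.1 were preincubated 5 min with compounds (1% DMSO), then run with ATP for 30 min at 37 °C. Released phosphate was measured by malachite green at 620 nm; K^+-stimulated activity taken as the difference between reactions with and without K^+.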

[2] = tested on: basal gastric acid secretion; assay: Inhibitory effects on basal gastric acid secretion in pylorus-ligated rats (Shay's rat model); assay type: in vivo, Sprague Dawley (SD) rats; conditions: oral, one hour before pylorus ligation, total acid output 5 hours after ligation, male SD rats
Method: Inhibitory effects of the compounds of the present invention on basal gastric acid secretion were performed according to Shay's rat model (Shay, H., et al., 1945, gastroenterology, 5, 43-61). Male Sprague Dawley (SD) rats (200±10 g body weight) were divided into 3 groups (n=5) and fasted for 24 hours with free access to water. Control group was orally administered with 0.5% methylcellulose alone and the other groups were orally administered with test compounds suspended in 0.5% methyl-cellulose solution at doses of 1, 3 and 10 mg/kg/5 ml one hour before pylorus ligation. Under ether anesthesia, the abdomens of the rats were incised and then the pylorus was ligated. 5 hours after ligation, the animals were sacrificed, and the gastric contents were collected. The collected contents were centrifuged at 1,000×g for 10 minutes to obtain the gastric juice. Total acid output was measured by 0.01N NaOH volume (ueq/ml) for automatic titration of the gastric juice to pH 7.0 and the ED50s of test compounds were calculated using the Litchfield-Wilcoxon method. % inhibitory activity was calculated from the following equation and the results are shown in Table 2. % inhibitory activity of test compound=(total acid output of control group−total acid output of the group treated with test compounds)/total acid output of control group X 100

[3] = molecular target: T2, hog gastric H^+/K^+-ATPase (Sus scrofa, UniProt P19156); assay: Reversible inhibition of hog gastric H^+/K^+-ATPase (Washout method); assay type: biochemical; conditions: for inhibition of H^+/K^+-ATPase activity after washout: activity completely recovered to non-treated group level; for inhibition of H^+/K^+-ATPase activity before washout: at the concentration giving 50% inhibition of the proton pump
T2 construct: from tissue; host or cells: hog fundic mucosa (gastric vesicles / microsomes, lyophilized)
Method: 3-1. […] Gastric vesicles were prepared from hog fundic mucosa using the method of Saccomani et al. (Saccomani […], Lewin M and Sachs G, Characterization of gastric mucosal membranes. IX. Fraction and purification of K-ATPase-containing vesicles by zonal centrifugation and free-flow electrophoresis technique. Biochem. Biophy. Acta. (BBA)-Biomembranes 465, 311-330, 1977.). This material was lyophilized and stored at -70° C. The protein content of gastric vesicles was determined by the Bradford method using bovine serum albumin as a standard (Bradford M M, A rapid and sensitive method for the quantitation of microgram quantities of protein utilizing the principle of protein-dye binding. Anal Biochem. 72, 248-254, 1976). 3-2. Determination of reversible inhibition of hog gastric H^+/K^+-ATPase Activity of H^+/K^+-ATPase in hog microsome (lyophilized vesicle) was measured by the inorganic phosphate released from ATP using an one-step colorimetric detection method at the concentration at which the test compounds have 50% inhibition of the proton pump (Chan […], and Junger K D, A direct colorimetric assay for Ca^2+-stimulated ATPase activity. Anal Biochem, 157, 375-380, 1986). […] Differentiation of their inhibition characteristics from those of omeprazole. Eur. J. Pharmacol., 187, 455-67, 1990). Lyophilized vesicle in the solution of 5 mM Pipes/Tris buffer was pre-incubated in the presence of the test compounds (the compounds of Examples 50, 64, and 94) at the concentration at which it has 50% inhibition of the proton pump. The previous reaction buffer was added with 2 mM MgCl2, 50 mM KCl, 5 uM Valinomycin, and 0.5 mM ATP and then incubated for 30 minutes at 37° C. The H^+/K^+-ATPase activity was measured using the calorimetric detection method and then the test sample was centrifuged at 100,000×g for 1 hr. The vesicles are present in the form of pellets in the test sample. The supernatant thereof was replaced with the same buffer not having the test compound. […] The H^+/K^+-ATPase activity was also measured using the calorimetric detection method. The H^+/K^+-ATPase activity before washout and after washout in the test sample was analyzed, in comparison with those in the non-treated group.

T2 sequence (P19156 2-1034 limits assumed): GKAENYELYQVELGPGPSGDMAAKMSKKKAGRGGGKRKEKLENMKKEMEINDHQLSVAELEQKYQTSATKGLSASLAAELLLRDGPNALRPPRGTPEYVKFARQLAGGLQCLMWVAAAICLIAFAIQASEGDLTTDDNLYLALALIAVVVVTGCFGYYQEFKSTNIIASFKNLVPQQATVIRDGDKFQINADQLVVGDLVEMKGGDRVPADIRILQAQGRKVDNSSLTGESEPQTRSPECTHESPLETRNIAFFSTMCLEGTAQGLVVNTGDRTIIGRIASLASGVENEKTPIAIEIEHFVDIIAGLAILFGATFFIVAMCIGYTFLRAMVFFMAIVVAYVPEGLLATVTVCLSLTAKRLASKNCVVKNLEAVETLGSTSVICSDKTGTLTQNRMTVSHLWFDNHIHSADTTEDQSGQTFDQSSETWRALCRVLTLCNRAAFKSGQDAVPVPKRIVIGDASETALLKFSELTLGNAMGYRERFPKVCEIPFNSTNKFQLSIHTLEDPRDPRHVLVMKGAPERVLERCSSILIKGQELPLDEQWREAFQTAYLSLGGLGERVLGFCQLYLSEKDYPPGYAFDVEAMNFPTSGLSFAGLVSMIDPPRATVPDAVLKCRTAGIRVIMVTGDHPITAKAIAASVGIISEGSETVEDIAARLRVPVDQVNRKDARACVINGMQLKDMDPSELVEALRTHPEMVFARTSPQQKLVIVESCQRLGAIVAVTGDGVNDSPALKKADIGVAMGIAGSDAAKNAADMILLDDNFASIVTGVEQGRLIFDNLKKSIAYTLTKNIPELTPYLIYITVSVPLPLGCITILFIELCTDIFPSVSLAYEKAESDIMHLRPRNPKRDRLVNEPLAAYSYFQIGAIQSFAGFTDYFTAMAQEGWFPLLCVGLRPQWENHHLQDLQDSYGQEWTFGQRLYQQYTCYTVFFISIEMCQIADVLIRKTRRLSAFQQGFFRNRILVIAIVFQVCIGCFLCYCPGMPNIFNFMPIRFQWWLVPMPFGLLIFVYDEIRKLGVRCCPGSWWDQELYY
T2 sequence (P18434 whole entry partner): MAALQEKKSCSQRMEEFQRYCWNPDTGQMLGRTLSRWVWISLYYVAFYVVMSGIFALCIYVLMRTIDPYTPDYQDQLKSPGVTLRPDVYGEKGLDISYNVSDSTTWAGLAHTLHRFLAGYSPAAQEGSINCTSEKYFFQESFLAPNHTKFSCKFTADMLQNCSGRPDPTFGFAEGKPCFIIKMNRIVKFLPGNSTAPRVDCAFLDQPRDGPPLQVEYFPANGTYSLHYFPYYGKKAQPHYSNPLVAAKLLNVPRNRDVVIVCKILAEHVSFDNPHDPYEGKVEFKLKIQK
T1 sequence (P19156 2-1034 limits assumed): as the sequence (P19156 2-1034 limits assumed) above
T1 sequence (P18434 whole entry partner): as the sequence (P18434 whole entry partner) above

Row | SMILES | IC50 [1] | ED50 [2] | inhibition of H^+/K^+-ATPase activity after washout [3] | inhibition of H^+/K^+-ATPase activity before washout [3]
1 | Cc1c(C)n(CC(C)C)c2c(OCc3ccc(F)cc3)ccnc12.Cl [Example 50, 7-(4-fluorobenzyloxy)-1-isobutyl-2,3-dimethyl-1H-pyrrolo[3,2-b]pyridine hydrochloride] | 2440 nM | 2.4 mg/kg | did not inhibit | 50%
2 | Cc1c(C)n(Cc2ccccc2)c2c(OCc3ccc(F)cc3)ccnc12.O=S(=O)(O)c1ccccc1 [Example 64, 1-benzyl-7-(4-fluorobenzyloxy)-2,3-dimethyl-1H-pyrrolo[3,2-b]pyridine benzenesulfonate] | – | – | did not inhibit | –
3 | COC(=O)c1ccc(Cn2c(C)c(C)c3nccc(OCc4ccc(Cl)cc4)c32)cc1.Cl [Example 94, 7-(4-chlorobenzyloxy)-1-(4-methoxycarbonylbenzyl)-2,3-dimethyl-1H-pyrrolo[3,2-b]pyridine hydrochloride] | 890 nM | – | did not inhibit | 50%
